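Values below derive from 48-hour exposures of cells grown in 96-well plates, with endpoints linearly interpolated between the two concentrations bracketing the appropriate inhibition level. GI50 marks 50% less growth. The concentration for full growth arrest is given as TGI.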

Some test systems named below: U251 CNS; HT29 colon; CCRF-CEM leukemia; HOP-62 NSCLC; UACC-62 melanoma; IGROV1 ovarian; OVCAR-5 ovarian; UACC-257 melanoma; MALME-3M melanoma.
What all share (assay): NCI tumour cell line growth inhibition, 48 h

`Cn1nc(-c2ccccc2)c(C(=O)/C=C/c2ccc(Cl)cc2)c(N2CCCC2)c1=O`: the TGI in the assay with U251 CNS is 15.5 µM; in the assay on HT29 colon it was 15.3 µM; in the assay on CCRF-CEM leukemia, 6.7 µM; in the assay with HOP-62 NSCLC it was 6.93 µM; in the assay with UACC-62 melanoma it was 22.4 µM; with IGROV1 ovarian, 27.9 µM.

As for `COc1ccc2c(c1)c1c3n2CCNN=C3CCC1`, the TGI in the assay on U251 CNS, with OVCAR-5 ovarian, in the assay with UACC-257 melanoma, with MALME-3M melanoma, in the assay with HT29 colon and with CCRF-CEM leukemia was above 100 µM throughout. For the same compound, the TGI in the assay with HOP-62 NSCLC, in the assay on UACC-62 melanoma and in the assay with IGROV1 ovarian was above 100 µM throughout.

With `C/C(=N\NS(=O)(=O)c1ccc([N+](=O)[O-])cc1)c1ccc[n+]([O-])n1`, the TGI in the assay with U251 CNS is 5.06 µM; in the assay with OVCAR-5 ovarian, 6.1 µM; with UACC-257 melanoma it was 14.6 µM; with MALME-3M melanoma, 9.45 µM; in the assay with HT29 colon, 3.98 µM; with CCRF-CEM leukemia it was above 30.1 µM. Also, the values for the TGI in the assay on HOP-62 NSCLC, with UACC-62 melanoma and with IGROV1 ovarian were 4.7 µM, 2.59 µM and 20.9 µM, respectively.

In the case of `[CH3][Sn]1([CH3])[O]CC(COc2cc(Cl)c(Cl)cc2Cl)[O]1` (stereo unspecified), the GI50 with U251 CNS is above 100 µM; in the assay with UACC-257 melanoma, 99 µM; with MALME-3M melanoma, above 100 µM; in the assay on HT29 colon, above 100 µM; with CCRF-CEM leukemia, 32.5 µM; in the assay on HOP-62 NSCLC, above 100 µM. Besides, the GI50 was 40.7 µM in the assay on UACC-62 melanoma and 70.3 µM with IGROV1 ovarian. Further, the TGI with U251 CNS, in the assay with UACC-257 melanoma, in the assay with MALME-3M melanoma, in the assay with HT29 colon, in the assay with CCRF-CEM leukemia and with HOP-62 NSCLC was above 100 µM each time. In addition, the TGI in the assay with UACC-62 melanoma and in the assay with IGROV1 ovarian was above 100 µM in each case.

On to `CCCCNC1=C(C(=O)OCC)/C(=N/NC(=O)c2ccccc2O)CO1`, for which the TGI in the assay on U251 CNS is above 100 µM; in the assay on OVCAR-5 ovarian, above 100 µM; with UACC-257 melanoma, 14.2 µM; in the assay on MALME-3M melanoma it was above 100 µM; in the assay on CCRF-CEM leukemia, above 100 µM; in the assay with HOP-62 NSCLC, above 100 µM. The TGI in the assay with UACC-62 melanoma and in the assay with IGROV1 ovarian was above 100 µM throughout.

With `COc1ccc(C)cc1C1CCC(=O)O1` (stereo unspecified), the TGI in the assay with U251 CNS, in the assay with OVCAR-5 ovarian, in the assay on UACC-257 melanoma, in the assay with MALME-3M melanoma, in the assay on HT29 colon and with CCRF-CEM leukemia was above 100 µM throughout. Further, the TGI with HOP-62 NSCLC, with UACC-62 melanoma and in the assay with IGROV1 ovarian was above 100 µM each time.

Turning to `CC(C)(C)Sc1nnc(SC(C)(C)C)c2c(=O)[nH]nc(SC(C)(C)C)c12`, the TGI turned out to be 19.7 µM in the assay with U251 CNS; 16.9 µM with OVCAR-5 ovarian; 26.7 µM in the assay with UACC-257 melanoma; 26.2 µM in the assay with MALME-3M melanoma; 19.1 µM in the assay with HT29 colon; 28.1 µM in the assay with CCRF-CEM leukemia. The TGI was 27 µM in the assay with HOP-62 NSCLC, 22.2 µM in the assay on UACC-62 melanoma and 22 µM in the assay with IGROV1 ovarian.

As to `O=C1C=Cc2ncccc2C1=O`, the TGI was above 57.8 µM in the assay with U251 CNS; above 58 µM with OVCAR-5 ovarian; 35.1 µM with UACC-257 melanoma; above 57.2 µM with MALME-3M melanoma; 43.4 µM in the assay with HT29 colon; 15.2 µM in the assay on CCRF-CEM leukemia. In addition, the TGI is above 82.9 µM in the assay with HOP-62 NSCLC, 31.1 µM in the assay with UACC-62 melanoma and above 58.3 µM in the assay with IGROV1 ovarian.

Regarding `C#CCOCn1cnc2ncnc(N)c21`, the TGI with U251 CNS, in the assay on OVCAR-5 ovarian, in the assay on UACC-257 melanoma, in the assay with MALME-3M melanoma, with HT29 colon and in the assay with CCRF-CEM leukemia was above 100 µM throughout. In addition, the TGI in the assay on HOP-62 NSCLC, with UACC-62 melanoma and in the assay on IGROV1 ovarian was above 100 µM in each case.

For the compound `CC(=O)c1c2c(cc3c1CC1(C3)Cc3cc4c(c(C(=O)O)c3C1)CCC4)CCC2` (stereo unspecified), the TGI was 70.6 µM in the assay on U251 CNS; above 100 µM in the assay with OVCAR-5 ovarian; above 100 µM in the assay with UACC-257 melanoma; above 100 µM in the assay on MALME-3M melanoma; above 100 µM in the assay with HT29 colon; 69.7 µM with CCRF-CEM leukemia. Also, the TGI in the assay on HOP-62 NSCLC is above 100 µM; in the assay on UACC-62 melanoma, 78.7 µM; with IGROV1 ovarian it was above 100 µM.

Take `COc1cc(C(C#N)NNc2nc(C)cc(=O)[nH]2)cc(OC)c1OC` (stereo unspecified): the TGI in the assay on U251 CNS, in the assay on OVCAR-5 ovarian, in the assay on UACC-257 melanoma, with MALME-3M melanoma, in the assay with HT29 colon and in the assay on CCRF-CEM leukemia was above 100 µM each time. The TGI in the assay with HOP-62 NSCLC, with UACC-62 melanoma and in the assay on IGROV1 ovarian was above 100 µM in each case.

For the compound `Cc1cc(Br)cc(C)c1NC(=O)C(=O)Nn1c(=S)[nH]c2ccccc2c1=O`, the TGI with U251 CNS, in the assay on OVCAR-5 ovarian, with UACC-257 melanoma, in the assay with MALME-3M melanoma, in the assay with HT29 colon and in the assay on CCRF-CEM leukemia was above 100 µM in each case. The TGI in the assay with HOP-62 NSCLC, with UACC-62 melanoma and with IGROV1 ovarian was above 100 µM in each case.

On to `O=S1(=O)c2ccccc2N=C(c2ccccc2Cl)CC1c1ccc(F)cc1` (stereo unspecified), for which the TGI worked out at 28.4 µM with U251 CNS; 30.7 µM with OVCAR-5 ovarian; 24.7 µM in the assay on UACC-257 melanoma; 36.8 µM in the assay with MALME-3M melanoma; 50.5 µM in the assay with CCRF-CEM leukemia; 32 µM in the assay with UACC-62 melanoma. For the same compound, the TGI in the assay with IGROV1 ovarian worked out at 37.4 µM.

Take `CC(C)N1C(C)[C@@H](c2ccccc2)O[P@]1(=O)CC1=CCCCC1` (stereo partly specified): the TGI in the assay with U251 CNS, in the assay on OVCAR-5 ovarian, in the assay on UACC-257 melanoma, with MALME-3M melanoma, in the assay on HT29 colon and in the assay on CCRF-CEM leukemia was above 100 µM in each case. Besides, the TGI in the assay on HOP-62 NSCLC, with UACC-62 melanoma and in the assay with IGROV1 ovarian was above 100 µM in each case.

Turning to `Cc1ccc2nc(NC(=O)C(=O)CC(=O)c3cccc4ccccc34)sc2c1`, the TGI was 49.7 µM with U251 CNS; above 100 µM in the assay with OVCAR-5 ovarian; 82.2 µM in the assay with UACC-257 melanoma; 70.2 µM in the assay with MALME-3M melanoma; above 100 µM in the assay with HT29 colon; above 100 µM in the assay with CCRF-CEM leukemia. The figures for the TGI in the assay with HOP-62 NSCLC, in the assay on UACC-62 melanoma and with IGROV1 ovarian were 56.9 µM, 86.8 µM and above 100 µM, respectively.

For the origin of these results see PubChem BioAssay (NCI).
